The first test concerns the target T1, human APJ receptor (Homo sapiens, UniProt P35414).
T1 construct: expressed in transfected cells; host or cells: HEK293
T1 sequence (P35414 1-380): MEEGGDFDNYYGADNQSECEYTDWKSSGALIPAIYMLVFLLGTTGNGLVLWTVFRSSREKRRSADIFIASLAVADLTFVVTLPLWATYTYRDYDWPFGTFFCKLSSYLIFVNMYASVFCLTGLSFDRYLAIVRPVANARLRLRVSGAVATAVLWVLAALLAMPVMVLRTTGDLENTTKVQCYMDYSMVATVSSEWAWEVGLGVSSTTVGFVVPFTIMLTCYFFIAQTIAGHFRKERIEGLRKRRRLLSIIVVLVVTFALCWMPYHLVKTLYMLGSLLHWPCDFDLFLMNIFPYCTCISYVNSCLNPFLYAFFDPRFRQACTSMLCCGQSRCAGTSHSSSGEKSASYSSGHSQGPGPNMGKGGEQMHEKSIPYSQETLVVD
Nature of the test: Intracellular cAMP accumulation assay (APJ hcAMP, HTRF). It counts as cell-based. Particulars: HEK293 cells stably expressing human APJ receptor; inhibition of forskolin-mediated cAMP production; Table 1; read-out: hAPJ cAMP EC50 Potency range. Summed up:
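Inhibition of forskolin (2 μM)-driven cAMP, with […], measured by HTRF after 30 min room-temperature compound exposure of stably transfected HEK293 cells. cAMP read from a standard curve; variable-slope fit gives EC50, and maximal inhibition is normalised to (Pyr1)apelin-13 as 100%.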
With `CCN(c1ccccc1)c1c(-c2cnn(C)c2)nc(O)c(S(=O)(=O)c2ccc(-c3ccnc(F)c3C)cc2)c1O` [Example 149, 5-(ethyl(phenyl)amino)-3-((4-(2-fluoro-3-methylpyridin-4-yl)phenyl)sulfonyl)-6-(1-methyl-1H-pyrazol-4-yl)pyridine-2,4-diol], the EC50 was in the range of 0.01 to 10 nM.

Take `CCN(c1ccccc1)c1c(-c2cccc(C)c2)nc(O)c(S(=O)(=O)c2ccc(-c3ccc(F)nc3C)cc2)c1O` [Example 114, 5-(ethyl(phenyl)amino)-3-((4-(6-fluoro-2-methylpyridin-3-yl)phenyl)sulfonyl)-6-(m-tolyl)pyridine-2,4-diol]: the EC50 fell in the range of 0.01 to 10 nM.

As for `CCN(c1cccc(C#N)c1)c1c(-c2ccn(C)n2)nc(O)c(S(=O)(=O)c2ccc(-c3ccccc3C(=O)N(C)C)cc2)c1O` [Example 210, 4′-((5-((3-cyano-phenyl)(ethyl)amino)-2,4-dihydroxy-6-(1-methyl-1H-pyrazol-3-yl)pyridin-3-yl)sulfonyl)-N,N-dimethyl-[1,1′-biphenyl]-2-carboxamide], the EC50 fell in the range of 0.01 to 10 nM.

For the compound `CCCCc1nc(O)c(S(=O)(=O)c2ccc(-c3ccccc3C(=O)N(C)C)cc2)c(O)c1N1CCCc2ccccc21` [Example 054, 4′-((6-butyl-5-(3,4-dihydroquinolin-1(2H)-yl)-2,4-dihydroxypyridin-3-yl)sulfonyl)-N,N-dimethyl-[1,1′-biphenyl]-2-carboxamide], the EC50 was 10 to 100 nM.

On to `CCCCc1nc(O)c(S(=O)(=O)c2ccc(-c3ccnc(F)c3C)cc2)c(O)c1N(CC)c1cc(C)cc(C)c1` [Example 136, 6-butyl-5-((3,5-dimethylphenyl)(ethyl)amino)-3-((4-(2-fluoro-3-methylpyridin-4-yl)phenyl)sulfonyl)pyridine-2,4-diol], for which the EC50 fell in the range of 0.01 to 10 nM.

As for `CCCCc1nc(O)c(S(=O)(=O)c2ccc(-c3ccnc(F)c3C)cc2)c(O)c1N(C)c1ccc(Cl)cc1` [Example 103, 6-butyl-5-((4-chlorophenyl)(methyl)amino)-3-((4-(2-fluoro-3-methylpyridin-4-yl)phenyl)sulfonyl)pyridine-2,4-diol], the EC50 fell in the range of 0.01 to 10 nM.

Turning to `CCCCc1nc(O)c(C(=O)N2CC[C@@H](c3ccccc3)C2)c(O)c1N(CCC)c1ccccc1` [Example 068, (S)-(6-butyl-2,4-dihydroxy-5-(phenyl(propyl)amino)pyridin-3-yl)(3-phenylpyrrolidin-1-yl)methanone], the EC50 fell in the range of 10 to 100 nM.

With `CCN(c1ccccc1)c1c(-c2cnc(C)s2)nc(O)c(S(=O)(=O)c2ccc(-c3ccccc3C(=O)NC)cc2)c1O` [Example 192, 4′-((5-(ethyl(phenyl)amino)-2,4-dihydroxy-6-(2-methylthiazol-5-yl)pyridin-3-yl)suflonyl)-N-methyl-[1,1′-biphenyl]-2-carboxamide], the EC50 was in the range of 0.01 to 10 nM.

For `CCCCc1nc(O)c(S(=O)(=O)c2ccc(-c3ccc(F)nc3C)cc2)c(O)c1N(C)c1cccc(C)c1` [Example 095, 6-butyl-3-((4-(6-fluoro-2-methylpyridin-3-yl)phenyl)sulfonyl)-5-(methyl(m-tolyl)amino)pyridine-2,4-diol], the EC50 lay within 10 to 100 nM.

Regarding `CCCCc1nc(O)c(S(=O)(=O)c2ccc(-c3ccc(F)nc3C)cc2)c(O)c1N(C)c1cccc(F)c1` [Example 109, 6-butyl-3-((4-(6-fluoro-2-methylpyridin-3-yl)phenyl)sulfonyl)-5-((3-fluorophenyl)(methyl)amino)pyridine-2,4-diol], the EC50 lay within 10 to 100 nM.

Consider `CCCCc1nc(O)c(S(=O)(=O)c2ccc(-c3ccnc(F)c3C)cc2)c(O)c1N1CCCCc2ccccc21` [Example 180, 6-butyl-3-((4-(2-fluoro-3-methylpyridin-4-yl)phenyl)sulfonyl)-5-(2,3,4,5-tetrahydro-1H-benzo[b]azepin-1-yl)pyridine-2,4-diol], for which the EC50 lay within 0.01 to 10 nM.

As for `CCCCc1nc(O)c(S(=O)(=O)c2ccc(-c3ccnc(F)c3C)cc2)c(O)c1N(C)c1cccc(C)c1` [Example 091, 6-butyl-3-((4-(2-fluoro-3-methylpyridin-4-yl)phenyl)sulfonyl)-5-(methyl(m-tolyl)amino)pyridine-2,4-diol], the EC50 fell in the range of 0.01 to 10 nM.

On to `CCCCc1nc(O)c(S(=O)(=O)c2ccc(-c3ccnc(F)c3C)cc2)c(O)c1N1CCC(C)c2ccccc21` (stereo not drawn) [Example 044, 6-butyl-3-((4-(2-fluoro-3-methylpyridin-4-yl)phenyl)sulfonyl)-5-(4-methyl-3,4-dihydroquinolin-1(2H)-yl)pyridine-2,4-diol], for which the EC50 fell in the range of 0.01 to 10 nM.

On to `CCCCc1nc(O)c(S(=O)(=O)c2ccc(-c3ccccc3C(N)=O)cc2)c(O)c1N(CC)c1ccccc1` [Example 085, 4′-((6-butyl-5-(ethyl(phenyl)amino)-2,4-dihydroxypyridin-3-yl)sulfonyl)-[1,1′-biphenyl]-2-carboxamide], for which the EC50 fell in the range of 0.01 to 10 nM.

Regarding `CCN(c1ccccc1)c1c(-c2cnc(C)s2)nc(O)c(S(=O)(=O)c2ccc(-c3ccc(F)nc3C)cc2)c1O` [Example 190, 5-(ethyl(phenyl)amino)-3-((4-(6-fluoro-2-methylpyridin-3-yl)phenyl)sulfonyl)-6-(2-methylthiazol-5-yl)pyridine-2,4-diol], the EC50 lay in the range of 0.01 to 10 nM.

For `CCN(c1ccccc1)c1c(-c2cnn(C)c2)nc(O)c(S(=O)(=O)c2ccc(-c3ccncc3C)cc2)c1O` [Example 156, 5-(ethyl(phenyl)amino)-6-(1-methyl-1H-pyraozl-4-yl)-3-((4-(3-methylpyridin-4-yl)phenyl)sulfonyl)pyri-dine-2,4-diol], the EC50 lay in the range of 0.01 to 10 nM.

Take `CCCCc1nc(O)c(S(=O)(=O)c2ccc(-n3cc(C)ccc3=O)cc2)c(O)c1N(C)c1cccc(C)c1` [Example 099, 1-(4-((6-butyl-2,4-dihydroxy-5-(methyl(m-tolyl)amino)pyridin-3-yl)sulfonyl)phenyl)-5-methylpyridin-2(1H)-one]: the EC50 was 10 to 100 nM.

Turning to `CCCCc1nc(O)c(S(=O)(=O)c2ccc(-c3cccnc3C)cc2)c(O)c1N(C)c1cccc(F)c1` [Example 101, 6-butyl-5-((3-fluorophenyl)(methyl)amino)-3-((4-(2-methylpyridin-3-yl)phenyl)sulfonyl)pyridine-2,4-diol], the EC50 was 0.01 to 10 nM.

As to `CCCCc1nc(O)c(S(=O)(=O)c2ccc(-c3cccnc3C)cc2)c(O)c1N1CCCc2ccccc21` [Example 024, 6-butyl-5-(3,4-dihydroquinolin-1(2H)-yl)-3-((4-(2-methylpyridin-3-yl)phenyl)sulfonyl)pyridine-2,4-diol], the EC50 was in the range of 0.01 to 10 nM.

Take `CCCCc1nc(O)c(S(=O)(=O)c2ccc(-c3ccnc(F)c3C)cc2)c(O)c1N(C)c1cccc(OC)c1` [Example 029, 6-butyl-3-((4-(2-fluoro-3-methylpyridin-4-yl)phenyl)sulfonyl)-5-((3-methoxyphenyl)(methyl)amino)pyridine-2,4-diol]: the EC50 lay within 0.01 to 10 nM.

For the compound `CCCCc1nc(O)c(S(=O)(=O)c2ccc(-c3ccccc3C(=O)N(C)C)cc2)c(O)c1N(CC)c1cccc(C#N)c1` [Example 186, 4′-((6-butyl-5-((3-cyanophenyl)(ethyl)a-mino)-2,4-dihydroxypyridin-3-yl)sulfonyl)-N,N-dimethyl-[1,1′-biphenyl]-2-carboxamide], the EC50 lay in the range of 0.01 to 10 nM.

Regarding `CCCCc1nc(O)c(S(=O)(=O)c2ccc(-c3ccncc3C)cc2)c(O)c1N1CCc2ccccc21` [Example 013, 6-butyl-5-(indolin-1-yl)-3-((4-(3-methylpyridin-4-yl)phenyl)sulfonyl)pyridine-2,4-diol], the EC50 was in the range of 0.01 to 10 nM.

`CCCCc1nc(O)c(S(=O)(=O)c2ccc(-c3ccncc3C)cc2)c(O)c1N(C)c1ccccc1` [Example 014, 6-butyl-5-(methyl(phenyl)amino)-3-((4-(3-methylpyridin-4-yl)phenyl)sulfonyl)pyridine-2,4-diol]: the EC50 is 0.01 to 10 nM.

As for `CCN(c1cccc(C#N)c1)c1c(-c2ccn(C)n2)nc(O)c(S(=O)(=O)c2ccc(-c3ccncc3C)cc2)c1O` [Example 212, 3-((4,6-dihydroxy-2-(1-methyl-1H-pyrazol-3-yl)-5-((4-(3-methylpyridin-4-yl)phenyl)sulfonyl)pyri-din-3-yl)(ethyl)amino)benzonitrile], the EC50 was 0.01 to 10 nM.

With `CCN(c1ccccc1)c1c(-c2ccn(C)n2)nc(O)c(S(=O)(=O)c2ccc(-c3cccnc3C)cc2)c1O` [Example 058, 5-(ethyl(phenyl)amino)-6-(1-methyl-1H-pyrazol-3-yl)-3-((4-(2-methylpyridin-3-yl)phenyl)sulfonyl)pyridine-2,4-diol], the EC50 fell in the range of 0.01 to 10 nM.

Staying with this test, now noted: HEK293 cells stably expressing human APJ receptor; inhibition of forskolin-mediated cAMP production; Table 2; read-out: hAPJ cAMP EC50 Potency range.
Consider `CCN(c1ccccc1)c1c(-c2ccn(C)n2)nc(O)c(C(=O)N2CCC(c3ccc(F)cc3F)C2)c1O` (stereo not drawn) [Example 201, (3-(2,4-difluorophenyl)pyrrolidin-1-yl)(5-(ethyl(phenyl)amino)-2,4-dihydroxy-6-(1-methyl-1H-pyrazol-3-yl)pyridin-3-yl)methanone], for which the EC50 lay in the range of 0.01 to 10 nM.

The same test, now with this note: HEK293 cells stably expressing human APJ receptor; inhibition of forskolin-mediated cAMP production; read-out: Human APJ cAMP Potency range.
`CCCCc1nc(O)c(S(=O)(=O)c2ccc(C3CC3)cc2)c(O)c1N(CC)c1ccccc1` [Example 004, 6-butyl-3-((4-cyclopropylphenyl)sulfonyl)-5-(ethyl(phenyl)amino)pyridine-2,4-diol]: the EC50 was in the range of 0.01 to 10 nM.

These data come from US10669258B2, “3-sulfonyl-5-aminopyridine-2,4-diol APJ agonists” (BRISTOL-MYERS SQUIBB COMPANY, priority 2016, dated 2020).
